Converted amounts (≈) assume the structure as drawn.
What was measured:
Test in all cases: Minimum inhibitory concentration (MIC90)
Format in all cases: cell-based
[1] = system: H influenzae/β-lactamase negative; conditions: inhibits growth of 90% of the strains
From the text: (§1) The concentrations of the antibiotics of formula (I) in the compositions of the present invention will vary depending on the intended use of the compositions (e.g., treatment of existing infections or prevention of post-surgical infections), and the relative antimicrobial activity of the specific antibiotic selected. The antimicrobial activity of antibiotics is generally expressed as the minimum concentration required to inhibit the growth of a specified pathogen. This concentration is also referred to as the “minimum inhibitory concentration” or “MIC”. The term “MIC90” refers to the minimum concentration of antibiotic required to inhibit the growth of ninety percent (90%) of the strains of a species. The concentration of an antibiotic required to totally kill a specified bacteria is referred to as the “minimum bactericidal concentration” or “MBC”.

[2] = system: H. influenzae/β-lactamase positive; conditions: Haemophilus influenzae, inhibits growth of 90% of the strains
From the text: as §1

P. aeruginosa = conditions: Pseudomonas aeruginosa, inhibits growth of 90% of the strains
From the text: as §1

[3] = system: S. aureus/methicillin resistant; conditions: Staphylococcus aureus, inhibits growth of 90% of the strains
From the text: as §1

[4] = system: S. aureus/methicillin sensitive; conditions: Staphylococcus aureus, inhibits growth of 90% of the strains
From the text: as §1

[5] = system: S. aureus/quinolone resistant; conditions: Staphylococcus aureus, inhibits growth of 90% of the strains
From the text: as §1

[6] = system: S. epidermidis/methicillin resistant; conditions: Staphylococcus epidermidis, inhibits growth of 90% of the strains
From the text: as §1

[7] = system: S. epidermidis/methicillin sensitive; conditions: Staphylococcus epidermidis, inhibits growth of 90% of the strains
From the text: as §1

[8] = system: S. pneumoniae/penicillin resistant; conditions: Streptococcus pneumoniae, inhibits growth of 90% of the strains
From the text: as §1

[9] = system: S. pneumoniae/penicillin sensitive; conditions: Streptococcus pneumoniae, inhibits growth of 90% of the strains
From the text: as §1

Compound `COc1c(N2C[C@@H]3CCCN[C@@H]3C2)c(F)cc2c(=O)c(C(=O)O)cn(C3CC3)c12` [Moxifloxacin] has an MIC90 [1] of 0.06 µg/mL (≈ 0.149 µM), an MIC90 [2] of 0.06 µg/mL (≈ 0.149 µM) and an MIC90 (P. aeruginosa) of 8 µg/mL (≈ 19.9 µM). The MIC90 [3] was 4 µg/mL (≈ 9.96 µM), the MIC90 [4] was 0.13 µg/mL (≈ 0.324 µM) and the MIC90 [5] was 4 µg/mL (≈ 9.96 µM). The MIC90 [6] was 4 µg/mL (≈ 9.96 µM), the MIC90 [7] was 0.25 µg/mL (≈ 0.623 µM) and the MIC90 [8] was 0.25 µg/mL (≈ 0.623 µM). The MIC90 [9] was 0.25 µg/mL (≈ 0.623 µM).
